Laboratory results published in ChEMBL document CHEMBL4007467, “Effects of 6-paradol, an unsaturated ketone from gingers, on cytochrome P450-mediated drug metabolism” (Bioorg Med Chem Lett, 2017).

What was measured:
Type in all cases: ADME
Cytochrome P450 2C8 [1] = molecular target: T1, Cytochrome P450 2C8 (Homo sapiens, UniProt P10632); assay: Inhibition of CYP2C8 in human liver microsomes assessed as enzyme-mediated metabolite formation using paclitaxel as substrate incubated for 5 mins followed by NADPH addition measured after 30 mins by LC-MS/MS analysis
T1 sequence (P10632 whole entry): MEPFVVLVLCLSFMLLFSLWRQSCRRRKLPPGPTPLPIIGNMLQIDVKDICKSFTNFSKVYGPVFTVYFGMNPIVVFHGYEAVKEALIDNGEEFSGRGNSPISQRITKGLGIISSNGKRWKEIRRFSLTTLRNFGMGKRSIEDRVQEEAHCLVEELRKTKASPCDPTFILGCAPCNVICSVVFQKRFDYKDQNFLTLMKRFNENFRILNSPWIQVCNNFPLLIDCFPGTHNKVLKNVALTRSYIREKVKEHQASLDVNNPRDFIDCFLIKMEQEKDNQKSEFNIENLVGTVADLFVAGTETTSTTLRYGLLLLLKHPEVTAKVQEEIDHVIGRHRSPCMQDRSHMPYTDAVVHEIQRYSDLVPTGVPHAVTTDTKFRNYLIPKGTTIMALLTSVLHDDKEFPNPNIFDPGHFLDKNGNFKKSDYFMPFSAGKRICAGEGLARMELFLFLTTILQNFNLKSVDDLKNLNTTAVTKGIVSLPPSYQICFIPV

CYP2C19 [2] = molecular target: T2, CYP2C19 (Homo sapiens, UniProt P33261); assay: Inhibition of CYP2C19 in human liver microsomes assessed as enzyme-mediated metabolite formation at 30 uM using (S)-mephenytoin as substrate incubated for 5 mins followed by NADPH addition measured after 30 mins by LC-MS/MS analysis relative to control; set-up: scale not given: the % may be the effect or the level left; conditions: probe (S)-mephenytoin, read-out: Activity
T2 sequence (P33261 whole entry): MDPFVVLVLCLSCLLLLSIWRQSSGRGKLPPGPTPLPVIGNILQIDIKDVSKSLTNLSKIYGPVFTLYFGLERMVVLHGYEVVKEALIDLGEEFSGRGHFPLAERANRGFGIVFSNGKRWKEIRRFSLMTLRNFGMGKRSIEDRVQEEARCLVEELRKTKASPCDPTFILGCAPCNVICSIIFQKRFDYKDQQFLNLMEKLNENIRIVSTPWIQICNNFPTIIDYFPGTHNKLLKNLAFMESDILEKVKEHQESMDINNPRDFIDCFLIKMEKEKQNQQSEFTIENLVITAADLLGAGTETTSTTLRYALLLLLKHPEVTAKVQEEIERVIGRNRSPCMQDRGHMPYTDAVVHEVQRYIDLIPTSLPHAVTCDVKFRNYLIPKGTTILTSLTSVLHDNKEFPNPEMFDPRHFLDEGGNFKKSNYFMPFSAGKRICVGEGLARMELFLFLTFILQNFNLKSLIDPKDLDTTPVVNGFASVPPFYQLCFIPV

CYP1A2 = molecular target: T3, CYP1A2 (Homo sapiens, UniProt P05177); assay: Inhibition of CYP1A2 in human liver microsomes assessed as enzyme-mediated metabolite formation at 1 uM using phenacetin as substrate preincubated for 20 mins followed by substrate addition measured after 30 mins in presence of NADPH by LC-MS/MS analysis relative to control; set-up: scale not given: the % may be the effect or the level left; conditions: probe phenacetin, read-out: Activity
T3 sequence (P05177 whole entry): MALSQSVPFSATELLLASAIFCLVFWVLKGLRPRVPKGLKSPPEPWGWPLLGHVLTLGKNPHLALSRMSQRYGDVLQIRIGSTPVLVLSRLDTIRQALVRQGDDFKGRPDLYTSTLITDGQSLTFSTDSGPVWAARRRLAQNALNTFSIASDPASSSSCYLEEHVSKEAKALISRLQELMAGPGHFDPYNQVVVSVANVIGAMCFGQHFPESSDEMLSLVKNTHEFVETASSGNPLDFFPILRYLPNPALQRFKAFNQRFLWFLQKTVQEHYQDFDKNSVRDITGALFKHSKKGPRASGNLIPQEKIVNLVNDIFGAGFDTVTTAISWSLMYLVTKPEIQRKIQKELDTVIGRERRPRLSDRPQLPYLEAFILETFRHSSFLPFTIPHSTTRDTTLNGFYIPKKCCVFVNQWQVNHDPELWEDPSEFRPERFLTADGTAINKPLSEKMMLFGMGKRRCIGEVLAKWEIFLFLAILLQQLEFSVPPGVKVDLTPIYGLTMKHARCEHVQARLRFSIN

CYP2A6 = molecular target: T4, CYP2A6 (Homo sapiens, UniProt P11509); assay: Inhibition of CYP2A6 in human liver microsomes assessed as enzyme-mediated metabolite formation at 1 uM using coumarin as substrate preincubated for 20 mins followed by substrate addition measured after 30 mins in presence of NADPH by LC-MS/MS analysis relative to control; set-up: scale not given: the % may be the effect or the level left; conditions: probe coumarin, read-out: Activity
T4 sequence (P11509 whole entry): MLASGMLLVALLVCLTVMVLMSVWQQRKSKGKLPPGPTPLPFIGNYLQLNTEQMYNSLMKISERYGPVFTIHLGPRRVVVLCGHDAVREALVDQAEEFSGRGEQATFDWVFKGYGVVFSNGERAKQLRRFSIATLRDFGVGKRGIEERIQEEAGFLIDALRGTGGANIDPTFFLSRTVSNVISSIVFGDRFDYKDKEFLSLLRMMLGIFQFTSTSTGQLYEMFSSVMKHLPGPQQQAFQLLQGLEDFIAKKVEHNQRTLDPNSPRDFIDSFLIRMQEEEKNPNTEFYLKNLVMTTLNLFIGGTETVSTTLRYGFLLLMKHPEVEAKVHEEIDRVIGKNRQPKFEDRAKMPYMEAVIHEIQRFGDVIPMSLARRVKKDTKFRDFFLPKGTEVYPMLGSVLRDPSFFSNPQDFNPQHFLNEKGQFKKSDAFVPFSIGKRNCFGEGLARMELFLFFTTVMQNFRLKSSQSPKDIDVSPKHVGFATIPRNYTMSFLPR

Cytochrome P450 2A6 = molecular target: T5, Cytochrome P450 2A6 (Homo sapiens, UniProt P11509); assay: Inhibition of CYP2A6 in human liver microsomes using coumarin as substrate preincubated for 20 mins followed by substrate addition measured after 30 mins in presence of NADPH by LC-MS/MS analysis
T5 sequence (P11509 whole entry): T4 sequence (P11509 whole entry)

Cytochrome P450 2C8 [3] = molecular target: T1, Cytochrome P450 2C8; assay: Inhibition of CYP2C8 in human liver microsomes using paclitaxel as substrate preincubated for 20 mins followed by substrate addition measured after 30 mins in presence of NADPH by LC-MS/MS analysis
CYP2C9 = CYP2C9 (Homo sapiens, UniProt P11712); assay: Inhibition of CYP2C9 in human liver microsomes assessed as enzyme-mediated metabolite formation at 30 uM using diclofenac as substrate preincubated for 20 mins followed by substrate addition measured after 30 mins in presence of NADPH by LC-MS/MS analysis relative to control; set-up: scale not given: the % may be the effect or the level left; conditions: probe diclofenac, read-out: Activity
Chain of CYP2C9 (P11712 whole entry): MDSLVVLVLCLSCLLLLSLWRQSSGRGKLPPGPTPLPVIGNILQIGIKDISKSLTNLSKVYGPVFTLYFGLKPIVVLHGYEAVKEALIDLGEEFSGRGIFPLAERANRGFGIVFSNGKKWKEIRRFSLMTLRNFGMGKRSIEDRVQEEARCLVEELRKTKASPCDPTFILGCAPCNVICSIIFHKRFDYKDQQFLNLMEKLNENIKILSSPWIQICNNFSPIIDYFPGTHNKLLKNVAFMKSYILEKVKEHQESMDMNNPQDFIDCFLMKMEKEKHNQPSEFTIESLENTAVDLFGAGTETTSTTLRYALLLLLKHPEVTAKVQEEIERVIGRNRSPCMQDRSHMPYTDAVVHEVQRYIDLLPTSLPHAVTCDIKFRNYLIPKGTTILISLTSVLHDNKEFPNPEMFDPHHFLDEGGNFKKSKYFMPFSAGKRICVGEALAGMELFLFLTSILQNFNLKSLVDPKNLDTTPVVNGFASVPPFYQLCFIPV

CYP2C19 [4] = molecular target: T2, CYP2C19; assay: Inhibition of CYP2C19 in human liver microsomes assessed as enzyme-mediated metabolite formation at 10 uM using (S)-mephenytoin as substrate preincubated for 20 mins followed by substrate addition measured after 30 mins in presence of NADPH by LC-MS/MS analysis relative to control; set-up: scale not given: the % may be the effect or the level left; conditions: probe (S)-mephenytoin, read-out: Activity
Cytochrome P450 3A4 [5] = molecular target: T6, Cytochrome P450 3A4 (Homo sapiens, UniProt P08684); assay: Inhibition of CYP3A4 in human liver microsomes using midazolam as substrate preincubated for 20 mins followed by substrate addition measured after 30 mins in presence of NADPH by LC-MS/MS analysis
T6 sequence (P08684 whole entry): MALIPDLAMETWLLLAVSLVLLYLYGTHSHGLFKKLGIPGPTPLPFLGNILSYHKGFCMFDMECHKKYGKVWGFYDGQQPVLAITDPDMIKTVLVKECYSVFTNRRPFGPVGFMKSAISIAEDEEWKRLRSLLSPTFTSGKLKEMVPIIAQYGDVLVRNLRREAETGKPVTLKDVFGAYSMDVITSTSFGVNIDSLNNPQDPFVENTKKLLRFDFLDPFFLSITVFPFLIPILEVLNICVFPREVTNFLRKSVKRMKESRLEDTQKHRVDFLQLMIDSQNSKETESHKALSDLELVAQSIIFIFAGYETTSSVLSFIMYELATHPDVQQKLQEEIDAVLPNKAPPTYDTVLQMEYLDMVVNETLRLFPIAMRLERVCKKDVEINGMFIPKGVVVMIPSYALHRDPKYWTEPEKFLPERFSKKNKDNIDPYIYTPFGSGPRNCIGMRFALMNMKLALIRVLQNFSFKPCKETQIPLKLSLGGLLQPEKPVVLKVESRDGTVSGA

CYP3A4 = CYP3A4 (Homo sapiens, UniProt P08684); assay: Inhibition of CYP3A4 in human liver microsomes assessed as enzyme-mediated metabolite formation at 1 uM using testosterone as substrate preincubated for 20 mins followed by substrate addition measured after 30 mins in presence of NADPH by LC-MS/MS analysis relative to control; set-up: scale not given: the % may be the effect or the level left; conditions: probe testosterone, read-out: Activity
Chain of CYP3A4 (P08684 whole entry): as above

Cytochrome P450 3A4 [6] = molecular target: T6, Cytochrome P450 3A4; assay: Inhibition of CYP3A4 in human liver microsomes using testosterone as substrate preincubated for 20 mins followed by substrate addition measured after 30 mins in presence of NADPH by LC-MS/MS analysis

IC50 (Cytochrome P450 2C8 [1]): 5.1 µM
activity at 0.5 h, 30 µM (CYP2C19 [2]): 42%
activity at 0.5 h, 1 µM (CYP1A2): 82.1%
activity at 0.5 h, 1 µM (CYP2A6): 102%
IC50 (Cytochrome P450 2A6): > 30 µM
IC50 (Cytochrome P450 2C8 [3]): 8.3 µM
activity at 0.5 h, 30 µM (CYP2C9): 46.9%
activity at 0.5 h, 10 µM (CYP2C19 [4]): 44.5%
IC50 (Cytochrome P450 3A4 [5]): > 30 µM
activity at 0.5 h, 1 µM (CYP3A4): 89.8%
IC50 (Cytochrome P450 3A4 [6]): > 30 µM
Compound: CCCCCCCC(=O)CCc1ccc(O)c(OC)c1
